Measurements: patent US7307166B1, “Oxpurine nucleosides and their congeners, and acyl, derivatives thereof, for improvement of hematopoiesis” (Wellstat Therapeutics Corporation, priority 1987, dated 2007)

How the values were obtained:
[1] = test system: Balb/C female mice; assay: Hematopoietic recovery after cyclophosphamide in mice (spleen weight, blood cell counts); type: in vivo, mouse; conditions: for spleen weight: Ex 38: day 7 after CP, guanosine 5, acyl derivatives 2.5 μmoles/mouse/day in 0.2% Tween 80 i.p. 6 days, Tween 80 0.2%
Procedure: Twenty-four hours later and each day thereafter for a total of 6 days, mice were given a 0.4 ml i.p. injection of either physiological saline (controls), guanine (5 μmoles/mouse/day), or guanosine (5 μmoles/mouse/day). On day 7 all 10 mice in each of the three groups were bled, and then sacrificed by cervical dislocation. Spleens were removed and weighed, and complete blood cell counts performed.
Twenty-four hours later and each day thereafter for a total of 6 days, mice were given a 0.4 ml i.p injection of either physiological saline (controls), Tween 80 (0.2%), guanosine (5 μmoles/mouse/day in 0.2% Tween 80), or 2.5 μmoles per mouse per day of one of the following acylated derivatives of guanosine in 0.2% Tween 80: triacetylguanosine, octanoylguanosine, lauroylguanosine, or palmitoylguanosine. On day 7 following CP administration all 10 animals from each of the 7 groups were bled, and then sacrificed by cervical dislocation. Spleens were removed and weighed, and complete blood counts performed.
Twenty-four hours later treatment was begun. Mice were given a 0.4 ml i.p. injection of either physiological saline (controls), Tween 80 (0.2%), or palmitoylguanosine (5 μmoles/mouse/day in 0.2% Tween 80). The timing of the treatments was varied within the groups. The control group was given saline on days 1-6. The mice receiving Tween 80 were treated either on days 1-4, 4-6 or 1-6. Palmitoylguanosine-treated mice were treated either on days 1-2, 1-4, 3-5, 4-6 or 1-6. If a group of mice received no Tween 80 or palmitoylguanosine on a given day, saline was administered by i.p. injection. Thus, there were 9 groups of 9 animals in all. On day 7 following CP administration all of the animals were bled and then sacrificed by cervical dislocation. Spleens were removed and weighed, and complete blood cell counts performed.
Twenty-four hours later and each day thereafter for a total of 6 days, mice were given a 0.4 ml i.p. injection of either physiological saline (controls), Tween 80 (0.5%), or one of three different doses of octanoylguanosine (0.5, 2.5, or 5 μmoles/mouse/day in 0.5% Tween 80). On day 7 following CP administration all 9 animals from each of the […] were bled and then sacrificed by cervical dislocation. Spleens were removed and weighed, and complete blood cell counts performed.
Twenty-four hours later and each day thereafter for a total of 6 days, mice were given a 0.4 ml i.p. injection of either physiological saline (controls), Tween 80 (0.5%), or octanoylguanosine (5.0 μmoles/mouse/day in 0.5% Tween 80). On day 7 following CP administration all 10 animals from each of the 3 groups were bled and then sacrificed by cervical dislocation. Spleens were removed, weighed, and fixed in 10% formalin for later histological examination. Complete blood cell counts were performed on the collected blood.
Twenty-four hours later and each day thereafter for a total of 6 days, mice were given a 0.4 ml i.p. injection of either physiological saline (controls), benzoylguanosine (2.5 μmoles/mouse/day in 0.2% Tween 80), or palmitoylguanosine (2.5 μmoles/mouse/day in 0.2% Tween 80). On days 7 and 10 following CP administration 8 animals from each of the 3 groups were bled and then were sacrificed by cervical dislocation. Spleens were removed and weighed, and complete blood cell counts performed.
Twenty four hours later and each day thereafter for a total of 4 or 6 days, mice were given a 0.4 ml i.p. injection of either physiological saline (controls), palmitoyldeoxyinosine (2.5 μmoles/mouse), or palmitoyl-xanthosine (2.5 μmoles/mouse). On days 5 and 7 following CP administration 6 of the 12 animals in each of the 3 groups were bled and then sacrificed by cervical dislocation. Spleens were removed and weighed, and complete blood cell counts performed.

[2] = test system: Balb/C female mice; assay: as above; type: in vivo, mouse; conditions: for total neutrophil counts: 2 μmoles/mouse; for recovery of blood cell counts: Ex 58: mice treated with cyclophosphamide, other nonionic surfactants
[3] = test system: FDCPmix cells; assay: FDCPmix cell proliferation in the presence of IL-3 (MTT assay); type: cell-based
Procedure: The FDCPmix cell line was used as a suitable in vitro model for predicting the effects of hematopoietic factors on pluripotential stem cells. These cells can be maintained in an undifferentiated state in the presence of IL-3 or undergo multi-lineage development in the presence of specific hematopoietic growth factors.
This level of proliferation (100%) served as the control value. Inhibition of proliferation by test compounds was represented as a percent of control.
FDCPmix cells were plated at a density of 5×10^4 cells per well in 96-well plates (5×10^5/ml) using IMDM medium plus 10% fetal bovine serum. […] Test compounds were added at a decreasing concentrations ranging from 10 micrograms/ml down to 1 nanogram/ml. The test compounds included: 3′,5′-O—N^2-tripalmitoyl-2′-deoxyguanosine, 3′,5′-di-O-palmitoyl-2′-deoxy-guanosine, 3′,5′-O—N^2-trioctanoyl-2′-deoxyguanosine, 3′,5′-di-O-octanoyl-2′-deoxyguanosine, and 3′,5′-o-N^2-trioleyl-2′-deoxy-guanosine.

[4] = Ex 47: day 7 after CP, 2.5 μmoles/mouse/day
[5] = Ex 45: day 7 after CP, dose-dependent, 0.5-5 μmoles/mouse/day
[6] = Ex 46: day 7 after CP, 5.0 μmoles/mouse/day
[7] = Ex 51: day 5 after CP, 2 μmoles/mouse i.p. daily, vs Tween-80
[8] = Dose 10 μg, 48 hours, IL-3 25 units/ml
[9] = Table 8 (Ex 63): 7 days after CP
[10] = Ex 48: day 7 after CP, 2.5 μmoles/mouse

Nc1nc2c(ncn2[C@@H]2O[C@H](COC(=O)c3ccccc3)[C@@H](O)[C@H]2O)c(=O)[nH]1
platelet number ([1]; Ex 47: day 10 after CP, 2.5 μmoles/mouse/day): significantly greater | Neutrophils [2, 4]: significantly elevated | spleen weight [2, 4]: significantly elevated | total white blood cells ([2]; Ex 47: day 7 after CP, 2.5 μmoles/mouse/day in 0.2% Tween 80 i.p. 6 days): significantly elevated

CCCCCCCC(=O)OC[C@H]1O[C@@H](n2cnc3c(=O)[nH]c(N)nc32)[C@H](O)[C@@H]1O
spleen weight [1]: significantly larger spleens | total number of neutrophils [1, 5]: significantly increased | peripheral white blood cells (WBC) [1, 6]: significantly greater | spleen size ([2]; Ex 45: day 7 after CP, 0.5, 2.5 or 5 μmoles/mouse/day in 0.5% Tween 80 i.p. 6 days): significantly larger | total number of leukocytes [2, 5]: significantly increased | Neutrophils [2, 6]: significantly greater | lymphopoiesis and myelopoiesis in the spleens (histology) [2, 6]: much greater | spleen weights ([2]; Ex 46: day 7 after CP, 5.0 μmoles/mouse/day in 0.5% Tween 80, vs saline or Tween 80): significantly greater | neutrophil counts ([2]; Ex 58: 50 mg/kg in 0.2% Tween 80 vs same dose in 0.02% Tween 80): significantly higher | neutrophil counts ([2]; Ex 58: day 7 after CP, 50 mg/kg/dose in 0.02% and 0.2% Tween 80, vs saline): significantly different from controls

CCCCCCCCCCCCCCCC(=O)O[C@H]1C[C@H](n2cnc3c(=O)[nH]c(N)nc32)O[C@@H]1CO [3′-O-palmitoyldeoxyguanosine, 3′-O-Palmitoyl-2′-Deoxyguanosine]
total neutrophil counts ([2]; Ex 51: day 5 after CP): significantly elevated | spleen weight [2, 7]: significantly elevated

CCCCCCCC(=O)OC[C@H]1O[C@@H](n2cnc3c(=O)[nH]c(N)nc32)C[C@@H]1OC(=O)CCCCCCC [DiOctdG, 3′,5′-di-O-octanoyl-2′-deoxyguanosine]
Cell proliferation (% of Control) ([3]; Dose 10 ng): 84 ± 2 % of Control | Cell proliferation (% of Control) ([3]; Dose 39 ng): 86 ± 1 % of Control | Cell proliferation (% of Control) ([3]; Dose 156 ng): 84 ± 6 % of Control | Cell proliferation (% of Control) ([3]; Dose 625 ng): 93 ± 1 % of Control | Cell proliferation (% of Control) ([3]; Dose 2.5 μg): 78 ± 2 % of Control | Cell proliferation (% of Control) [3, 8]: 100 ± .3 % of Control

CCCCCCCCCCCCCCCC(=O)OC[C@H]1O[C@@H](n2cnc3c(=O)[nH]c(NC(=O)C(C)C)nc32)C[C@@H]1O [NibuPdG, N^2-isobutyryl-5′-O-palmitoyl-2′-deoxyguanosine]
total neutrophil counts ([2]; Ex 51: day 5 after CP): significantly elevated | spleen weight [2, 7]: significantly elevated

CCCCCCCCCCCCCCCC(=O)OC[C@H]1O[C@@H](n2cnc3c(=O)[nH]cnc32)[C@H](O)[C@@H]1O [Palmitoylinosine]
Hematopoietic Recovery after cyclophosphamide ([2]; Ex 49 heading, 2.5 μmoles/mouse): Improves

CCCCCCCC(=O)Nc1nc2c(ncn2[C@H]2C[C@H](OC(=O)CCCCCCC)[C@@H](COC(=O)CCCCCCC)O2)c(=O)[nH]1 [TriOctdG, 3′,5′-O—N^2-trioctanoyl-2′-deoxyguanosine]
Cell proliferation (% of Control) ([3]; Dose 10 ng): 87 ± 4 % of Control | Cell proliferation (% of Control) ([3]; Dose 39 ng): 85 ± 2 % of Control | Cell proliferation (% of Control) ([3]; Dose 156 ng): 89 ± 6 % of Control | Cell proliferation (% of Control) ([3]; Dose 625 ng): 86 ± 2 % of Control | Cell proliferation (% of Control) ([3]; Dose 2.5 μg): 96 ± .1 % of Control | Cell proliferation (% of Control) [3, 8]: 107 ± 1 % of Control

CCCCCCCC/C=C\CCCCCCCC(=O)Nc1nc2c(ncn2[C@H]2C[C@H](OC(=O)CCCCCCC/C=C\CCCCCCCC)[C@@H](COC(=O)CCCCCCC/C=C\CCCCCCCC)O2)c(=O)[nH]1 [TriOdG, 3′,5′-O-N^2-trioleyl-2′-deoxyguanosine]
lymphocyte counts ([2]; Ex 63: day 7 after CP, molar equivalent of 25 mg/kg TriPdG): increased | Platelets [2, 9]: 741 ± 54 K/μl | Cell proliferation (% of Control) ([3]; Dose 10 ng): 92 ± 5 % of Control | Cell proliferation (% of Control) ([3]; Dose 39 ng): 91 ± 5 % of Control | Cell proliferation (% of Control) ([3]; Dose 156 ng): 92 ± 5 % of Control | Cell proliferation (% of Control) ([3]; Dose 625 ng): 98 ± 6 % of Control | Cell proliferation (% of Control) ([3]; Dose 2.5 μg): 80 ± 2 % of Control | Cell proliferation (% of Control) [3, 8]: 110 ± 3 % of Control

CCCCCCCCCCCCCCCCCC(=O)Nc1nc2c(ncn2[C@H]2C[C@H](OC(=O)CCCCCCCCCCCCCCCCC)[C@@H](COC(=O)CCCCCCCCCCCCCCCCC)O2)c(=O)[nH]1 [TriSdG, 3′,5′-O-N^2-tristearyl-2′-deoxyguanosine]
Neutrophils [2, 9]: 5.4 ± .5 K/μl | WBC [2, 9]: 7.6 ± .4 K/μl | Spleen ([2]; Table 8 (Ex 63): 7 days after CP, TriPdG 25 mg/kg, others molar equivalent, daily 5 days): 85 ± 9 mg

CC(=O)OC[C@H]1O[C@@H](n2cnc3c(=O)[nH]c(N)nc32)[C@H](OC(C)=O)[C@@H]1OC(C)=O [acetylguanosine, triacetylguanosine]
spleen weight [1]: significantly larger spleens

CCCCCCCCCCCC(=O)OC[C@H]1O[C@@H](n2cnc3c(=O)[nH]c(N)nc32)[C@H](O)[C@@H]1O [laurolyguanosine, Lauroylguanosine]
spleen weight [1]: significantly larger spleens

CCCCCCCCCCCCCCCC(=O)OC[C@H]1O[C@@H](n2c(N)nc3c(=O)[nH]c(N)nc32)[C@H](O)[C@@H]1O [palmitoyl-8-aminoguanosine]
spleen weight ([2]; Ex 59: days 5 and 7 after CP, 25 mg/kg/day): significantly elevated | Neutrophils ([2]; Ex 59: days 5 and 7 after CP, 25 mg/kg/day in 0.2% Tween 80 i.p.): significantly elevated

CCCCCCCCCCCCCCCC(=O)OC[C@H]1O[C@@H](n2cnc3c(=O)[nH]c(=O)[nH]c32)[C@H](O)[C@@H]1O [palmitoylxanthosine, Palmitoylxanthosine]
Neutrophils [1, 10]: significantly increased | total leukocytes [1, 10]: significantly increased | spleen weight [2, 10]: significantly increased

Triton X-100
recovery of blood cell counts [2]: enhanced the recovery

Tween 20
recovery of blood cell counts [2]: enhanced the recovery

Tween 40
recovery of blood cell counts [2]: enhanced the recovery

octylphenol-ethylene oxide condensate [Nonidet P-40]
recovery of blood cell counts [2]: enhanced the recovery

polyoxyethylene-10-oleyl ether [Brij 96]
recovery of blood cell counts [2]: enhanced the recovery
